For two compounds, IC50 results are on record in patent US6358960B1, “Amidino derivatives and drugs containing the same as the active ingredient” (Ono Pharmaceutical Co., Ltd., priority 1998, dated 2002).

This test deals with T1, FVIIa (Homo sapiens, UniProt P08709).
T1 construct: FVIIa (ADI#407, final 10 nM); purchased ADI #407 (FVIIa); #4500 (tissue factor)
The test is described as follows: FVIIa inhibitory activity (chromogenic substrate S-2288, FVIIa/tissue factor). Type of test: biochemical. The following applies: FVIIa 10 nM, tissue factor 10 nM, 2 mM CaCl2, 0.5 mM S-2288, 37° C., pH 7.5. The procedure: 10 μl of the compound of the present invention in 10% DMSO were added to 65 μl of the buffer solution including FVIIa (ADI#407, final 10 nM), tissue factor (ADI#4500, final 10 nM) and calcium chloride. The mixture was incubated for 10 minutes at 37° C., then 25 μl of 2 mM H-D-Ile-Pro-Arg-pNA (Chromogenix S-2288) was added (total volume 100 μl). The absorbance was measured at 405 nm at regular time intervals, and an initial velocity was calculated. The control value was measured with 10% of DMSO. Inhibitory activity was expressed as a 50% inhibition of control (IC50).
The final concentration of calcium chloride and S-2288 were 2 mM and 0.5 mM respectively. The buffer solution consisted of 50 mM tris-hydrochloric acid buffer (pH 7.5) containing 0.2% PEG6000 and 150 mM sodium chloride.

T1 sequence (P08709 213-466 limits assumed): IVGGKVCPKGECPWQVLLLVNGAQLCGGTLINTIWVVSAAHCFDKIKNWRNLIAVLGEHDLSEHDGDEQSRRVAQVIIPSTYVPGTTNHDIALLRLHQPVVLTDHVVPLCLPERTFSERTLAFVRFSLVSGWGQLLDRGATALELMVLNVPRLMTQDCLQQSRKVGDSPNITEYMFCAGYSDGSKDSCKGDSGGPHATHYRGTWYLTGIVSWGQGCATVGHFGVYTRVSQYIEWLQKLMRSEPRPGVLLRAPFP
T1 sequence (P08709 61-212 limits assumed): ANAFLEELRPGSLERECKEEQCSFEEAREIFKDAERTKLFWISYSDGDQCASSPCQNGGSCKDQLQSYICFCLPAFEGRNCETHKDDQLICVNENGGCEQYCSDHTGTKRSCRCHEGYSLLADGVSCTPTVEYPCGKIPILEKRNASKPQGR
T1 sequence (P13726 33-295 partner): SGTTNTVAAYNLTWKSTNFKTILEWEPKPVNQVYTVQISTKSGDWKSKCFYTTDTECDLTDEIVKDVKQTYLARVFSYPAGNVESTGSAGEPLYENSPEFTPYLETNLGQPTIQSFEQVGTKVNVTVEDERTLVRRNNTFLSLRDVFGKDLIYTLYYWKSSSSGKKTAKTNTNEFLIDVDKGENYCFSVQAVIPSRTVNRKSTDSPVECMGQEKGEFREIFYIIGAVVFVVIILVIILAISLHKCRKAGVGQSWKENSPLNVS

As for `CC(C)CNC(=O)c1ccc(-c2cc3ccccc3cc2C(=O)Nc2ccc(C(=N)N)cc2)c(C(=O)O)c1` [Example 19(47), 2-(3-(4-amidinophenylcarbamoyl)naphthalen-2-yl)-5-((2-methylpropyl)carbamoyl)benzoic acid methanesulfonate], the IC50 (as a rule, the concentration at which inhibition is half-maximal) stood at 0.012 µM. Turning to `COc1ccc(-c2ccc(C(=O)N[C@H](CO)C(C)(C)C)cc2C(=O)O)c(C(=O)Nc2ccc(C(=N)N)cc2)n1` [Example 46, 2-[2-(4-amidinophenylcarbamoyl)-6-methoxy-3-pyridyl]-5-[(1(S)-hydroxymethyl-2,2-dimethylpropyl)carbamoyl]benzoic acid methanesulfonate], half-maximal inhibition (IC50) was put at 0.013 µM.
